# Laboratory results from patent US20260001928A1 (CORTERIA PHARMACEUTICALS, priority 2022, published 2026).
# *1 amine or outer side, *2 acyl side, *3 side chain or, on linkers, in order; H or OH if unused. Where a SMILES comes first, the peptide text is derived from it. Side-chain parts run from the residue outwards. [ ]: non-standard residue; d: D form. The star is where a group is joined. C18 diacid = O=C(O)CCCCCCCCCCCCCCCCC(=O)*; C16 diacid = O=C(O)CCCCCCCCCCCCCCC(=O)*; γGlu = O=C(O)[C@H](CCC(=O)[*:2])N[*:1]; C12 diacid = O=C(O)CCCCCCCCCCC(=O)*; αMeL = CC(C)C[C@](C)(N)C(=O)O; Api = NC1(C(=O)O)CCNCC1; Pentanoyl = CCCCC(=O)*; AEEA = NCCOCCOCC(=O)O; Aib = CC(C)(N)C(=O)O
# What was measured:
# human CRF2a receptor = molecular target: T1, human CRF2a receptor (Homo sapiens, UniProt Q13324); assay: Activity at human CRF2a receptor, cAMP functional assay in TeloHEAC cells; assay type: cell-based; conditions: TeloHEAC cells stably expressing human CRF2a receptor, relative to urocortin 2 (100 nM = 100%)
# T1 construct: expressed in transfected cells; host or cells: TeloHEAC cells
# T1 sequence (Q13324 1-411): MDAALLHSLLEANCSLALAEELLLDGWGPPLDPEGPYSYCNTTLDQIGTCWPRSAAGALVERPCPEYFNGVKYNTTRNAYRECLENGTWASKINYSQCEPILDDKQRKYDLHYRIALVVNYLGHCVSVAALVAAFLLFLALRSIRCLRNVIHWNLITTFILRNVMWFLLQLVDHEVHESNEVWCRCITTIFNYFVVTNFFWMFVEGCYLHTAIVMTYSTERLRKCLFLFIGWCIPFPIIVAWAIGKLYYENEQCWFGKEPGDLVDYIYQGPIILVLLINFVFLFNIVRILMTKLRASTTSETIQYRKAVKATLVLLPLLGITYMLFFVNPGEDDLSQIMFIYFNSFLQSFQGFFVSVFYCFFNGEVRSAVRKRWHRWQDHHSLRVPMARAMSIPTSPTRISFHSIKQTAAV
# Description: Agonism of compounds for human corticotropin-releasing factor 2a (CRF2a receptor) was determined by a functional assay measuring cAMP modulation upon treatment of TeloHEAC cells stably expressing human CRF2a receptor. Compounds were dissolved at 0.5 mM in 100% DMSO and serially diluted (1:2) in 100% DMSO for 16 dilutions. 20 nL of each dilution was then transferred to 384-well assay plate using an acoustic droplet ejection instrument. 5 μL of compound buffer (1×HBSS; 20 mM HEPES,) were then added to each well. Prior to use, frozen cells were thawed quickly at 37° C. and washed (5 min at 900 rpm) with 20 mL cell buffer (1×HBSS; 20 mM HEPES). Cells were resuspended in cell buffer added with 2 mM IBMX and adjusted to a cell density of […]. 5 μL cells (final dell density: 10000 cells/well) were dispensed in the compound-containing 384-well assay plate and incubated for 30 minutes 37° C. The cAMP level in treated cells was determined using the Cisbio 62AM4PEC kit according to manufacturer's instruction. Finally, plates were incubated for 1 h at room temperature before measuring the fluorescence ratio between 665/620 nm. The percent activity value (E %) was calculated by setting 100 nM of urocortin 2 (UCN2) as 100%. The in vitro potency of the compounds was quantified by determining the concentrations that caused 50% activation of maximal response (EC50) relative to urocortin 2.
# CFR1R receptor = molecular target: T2, CFR1R receptor (Homo sapiens, UniProt P34998); assay: Activity at anti-target CFR1R receptor, cAMP assay in CRF1R-overexpression CHO-K1 cells; assay type: cell-based; conditions: 100% = Sauvagine at 100 nM; for EC50: cAMP
# T2 construct: host or cells: CHO-K1 (clone 2)
# T2 sequence (P34998 24-415): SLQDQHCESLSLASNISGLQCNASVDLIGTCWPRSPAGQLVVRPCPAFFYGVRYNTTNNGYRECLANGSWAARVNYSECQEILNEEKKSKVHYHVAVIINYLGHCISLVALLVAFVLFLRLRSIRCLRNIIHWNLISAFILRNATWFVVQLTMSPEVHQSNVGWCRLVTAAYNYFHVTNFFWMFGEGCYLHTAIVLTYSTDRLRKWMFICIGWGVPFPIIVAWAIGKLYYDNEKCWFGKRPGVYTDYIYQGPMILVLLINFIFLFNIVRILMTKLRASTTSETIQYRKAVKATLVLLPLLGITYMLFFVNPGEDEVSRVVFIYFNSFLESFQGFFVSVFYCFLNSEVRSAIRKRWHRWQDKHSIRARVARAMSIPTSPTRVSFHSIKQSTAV
# Outline: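 Grow clone 2 to near confluence at 37° C. under 5% CO2 in F12 (Hams) with 10% FBS and G418, harvest, and freeze in 10% DMSO. Thaw and plate at 4000 cells/well. Then proceed per the TeloHAEC method, normalising to Sauvagine 100 nM as maximum.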
Compound,EC50 (human CRF2a receptor) [nM],Emax (% I) (CFR1R receptor),EC50 (CFR1R receptor) [nM]
CC[C@H](C)[C@H](NC(C)=O)C(=O)N[C@H](C(=O)N[C@@H](CC(C)C)C(=O)N[C@@H](CO)C(=O)N[C@@H](CC(C)C)C(=O)N[C@@H](CC(=O)O)C(=O)N[C@@H](C(=O)N1CCC[C@H]1C(=O)N[C@H](C(=O)N[C@@H](CCCCN)C(=O)N[C@@](C)(CC(C)C)C(=O)N[C@@H](CCCCNC(=O)CC[C@H](NC(=O)CCCCCCCCCCCCCCC(=O)O)C(=O)O)C(=O)N[C@@H](CCCCN)C(=O)N[C@H](C(=O)N[C@@H](CC(C)C)C(=O)N[C@@H](CC(C)C)C(=O)N[C@@H](CCC(=O)O)C(=O)N[C@@H](CCC(N)=O)C(=O)N[C@@H](CCC(=O)O)C(=O)N[C@@H](CCCCN)C(=O)N[C@@H](CCC(N)=O)C(=O)N[C@@H](CCCCN)C(=O)N[C@@H](CCCCN)C(=O)N[C@@H](CCC(N)=O)C(=O)N[C@@H](CCCNC(=N)N)C(=O)N[C@@H](CCC(=O)O)C(=O)N[C@@H](CCC(N)=O)C(=O)N[C@@H](C)C(=O)N[C@@H](CCC(=O)O)C(=O)N[C@H](C(=O)N[C@@H](CC(N)=O)C(=O)N[C@H](C(=O)N[C@@H](CCC(N)=O)C(=O)N[C@H](C(=O)N[C@@H](CC(C)C)C(=O)N[C@@H](C)C(=O)N[C@@H](CCC(N)=O)C(=O)N[C@H](C(N)=O)C(C)C)[C@@H](C)CC)C(C)C)[C@@H](C)O)[C@@H](C)CC)[C@@H](C)CC)C(C)C)C(C)C [compound 50] (Ac-IVLSLD[dV]PIK[αMeL]K([γGlu-C16 diacid])KILLEQEKQKKQREQAETNVQILAQV-NH2),0.26,9,> 250
CC[C@H](C)[C@H](NC(C)=O)C(=O)N[C@H](C(=O)N[C@@H](CC(C)C)C(=O)N[C@@H](CO)C(=O)N[C@@H](CC(C)C)C(=O)N[C@@H](CC(=O)O)C(=O)N[C@@H](C(=O)N1CCC[C@H]1C(=O)N[C@H](C(=O)N[C@@H](CCCCN)C(=O)N[C@@H](CC(C)C)C(=O)N[C@@H](CCCCNC(=O)COCCOCCNC(=O)COCCOCCNC(=O)CC[C@H](NC(=O)CC[C@H](NC(=O)CCCCCCCCCCCCCCCCC(=O)O)C(=O)O)C(=O)O)C(=O)N[C@@H](CCCCN)C(=O)N[C@H](C(=O)N[C@@H](CC(C)C)C(=O)N[C@@H](CC(C)C)C(=O)N[C@@H](CCC(=O)O)C(=O)N[C@@H](CCC(N)=O)C(=O)N[C@@H](CCC(=O)O)C(=O)N[C@@H](CCCCN)C(=O)N[C@@H](CCC(N)=O)C(=O)N[C@@H](CCCCN)C(=O)N[C@@H](CCCCN)C(=O)N[C@@H](CCC(N)=O)C(=O)N[C@@H](CCCNC(=N)N)C(=O)N[C@@H](CCC(=O)O)C(=O)N[C@@H](CCC(N)=O)C(=O)N[C@@H](C)C(=O)N[C@@H](CCC(=O)O)C(=O)N[C@H](C(=O)N[C@@H](CC(N)=O)C(=O)NC(C)(C)C(=O)N[C@@H](CCC(N)=O)C(=O)N[C@H](C(=O)N[C@@H](CC(C)C)C(=O)N[C@@H](C)C(=O)N[C@@H](CCC(N)=O)C(=O)N[C@H](C(N)=O)C(C)C)[C@@H](C)CC)[C@@H](C)O)[C@@H](C)CC)[C@@H](C)CC)C(C)C)C(C)C [compound 204] (Ac-IVLSLD[dV]PIKLK([AEEA-AEEA-γGlu-γGlu-C18 diacid])KILLEQEKQKKQREQAETN[Aib]QILAQV-NH2),1.84,−2,> 250
CCCCC(=O)N[C@H](C(=O)N[C@@H](CC(C)C)C(=O)N[C@@H](CO)C(=O)N[C@@H](CC(C)C)C(=O)N[C@@H](CC(=O)O)C(=O)N[C@@H](C(=O)N1CCC[C@H]1C(=O)N[C@H](C(=O)N[C@@H](CCCCN)C(=O)N[C@@H](CC(C)C)C(=O)N[C@@H](CCCCNC(=O)CC[C@H](NC(=O)CCCCCCCCCCCCCCC(=O)O)C(=O)O)C(=O)N[C@@H](CCCCN)C(=O)N[C@H](C(=O)N[C@@H](CC(C)C)C(=O)N[C@@H](CC(C)C)C(=O)N[C@@H](CCC(=O)O)C(=O)N[C@@H](CCC(N)=O)C(=O)N[C@@H](CCC(=O)O)C(=O)N[C@@H](CCCCN)C(=O)N[C@@H](CCC(N)=O)C(=O)N[C@@H](CCCCN)C(=O)N[C@@H](CCCCN)C(=O)N[C@@H](CCC(N)=O)C(=O)N[C@@H](CCCNC(=N)N)C(=O)N[C@@H](CCC(=O)O)C(=O)N[C@@H](CCC(N)=O)C(=O)N[C@@H](C)C(=O)N[C@@H](CCC(=O)O)C(=O)N[C@H](C(=O)N[C@@H](CC(N)=O)C(=O)N[C@@H](CCCCN)C(=O)N[C@@H](CCC(N)=O)C(=O)N[C@H](C(=O)N[C@@H](CC(C)C)C(=O)N[C@@H](C)C(=O)N[C@@H](CCC(N)=O)C(=O)N[C@H](C(N)=O)C(C)C)[C@@H](C)CC)[C@@H](C)O)[C@@H](C)CC)[C@@H](C)CC)C(C)C)C(C)C [compound 37] (Pentanoyl-VLSLD[dV]PIKLK([γGlu-C16 diacid])KILLEQEKQKKQREQAETNKQILAQV-NH2),0.13,22,> 250
CCCCC(=O)N[C@H](C(=O)N[C@@H](CC(C)C)C(=O)N[C@@H](CO)C(=O)N[C@@H](CC(C)C)C(=O)N[C@@H](CC(=O)O)C(=O)N[C@@H](C(=O)N1CCC[C@H]1C(=O)N[C@H](C(=O)N[C@@H](CCCCN)C(=O)N[C@@](C)(CC(C)C)C(=O)N[C@@H](CCCCNC(=O)COCCOCCNC(=O)COCCOCCNC(=O)CC[C@H](NC(=O)CCCCCCCCCCCCCCCCC(=O)O)C(=O)O)C(=O)N[C@@H](CCCCN)C(=O)N[C@H](C(=O)N[C@@H](CC(C)C)C(=O)N[C@@H](CC(C)C)C(=O)N[C@@H](CCC(=O)O)C(=O)N[C@@H](CCC(N)=O)C(=O)N[C@@H](CCC(=O)O)C(=O)N[C@@H](CCCCN)C(=O)N[C@@H](CCC(N)=O)C(=O)N[C@@H](CCCCN)C(=O)N[C@@H](CCCCN)C(=O)N[C@@H](CCC(N)=O)C(=O)N[C@@H](CCCNC(=N)N)C(=O)N[C@@H](CCC(=O)O)C(=O)N[C@@H](CCC(N)=O)C(=O)N[C@@H](C)C(=O)N[C@@H](CCC(=O)O)C(=O)N[C@H](C(=O)N[C@@H](CC(N)=O)C(=O)N[C@H](C(=O)N[C@@H](CCC(N)=O)C(=O)N[C@H](C(=O)N[C@@H](CC(C)C)C(=O)N[C@@H](C)C(=O)N[C@@H](CCC(N)=O)C(=O)N[C@H](C(N)=O)C(C)C)[C@@H](C)CC)C(C)C)[C@@H](C)O)[C@@H](C)CC)[C@@H](C)CC)C(C)C)C(C)C [compound 124] (Pentanoyl-VLSLD[dV]PIK[αMeL]K([AEEA-AEEA-γGlu-C18 diacid])KILLEQEKQKKQREQAETNVQILAQV-NH2),0.38,14,> 250
CC[C@H](C)[C@H](NC(C)=O)C(=O)N[C@H](C(=O)N[C@@H](CC(C)C)C(=O)N[C@@H](CO)C(=O)N[C@@H](CC(C)C)C(=O)N[C@@H](CC(=O)O)C(=O)N[C@@H](C(=O)N1CCC[C@H]1C(=O)N[C@H](C(=O)N[C@@H](CCCCN)C(=O)N[C@@H](CC(C)C)C(=O)N[C@@H](CCCCNC(=O)CC[C@H](NC(=O)CCCCCCCCCCC(=O)O)C(=O)O)C(=O)N[C@@H](CCCCN)C(=O)N[C@H](C(=O)N[C@@H](CC(C)C)C(=O)N[C@@H](CC(C)C)C(=O)N[C@@H](CCC(=O)O)C(=O)N[C@@H](CCC(N)=O)C(=O)N[C@@H](CCC(=O)O)C(=O)N[C@@H](CCCCN)C(=O)N[C@@H](CCC(N)=O)C(=O)N[C@@H](CCCCN)C(=O)N[C@@H](CCCCN)C(=O)N[C@@H](CCC(N)=O)C(=O)N[C@@H](CCCNC(=N)N)C(=O)N[C@@H](CCC(=O)O)C(=O)N[C@@H](CCC(N)=O)C(=O)N[C@@H](C)C(=O)N[C@@H](CCC(=O)O)C(=O)N[C@H](C(=O)N[C@@H](CC(N)=O)C(=O)NC1(C(=O)N[C@@H](CCC(N)=O)C(=O)N[C@H](C(=O)N[C@@H](CC(C)C)C(=O)N[C@@H](C)C(=O)N[C@@H](CCC(N)=O)C(=O)N[C@H](C(N)=O)C(C)C)[C@@H](C)CC)CCNCC1)[C@@H](C)O)[C@@H](C)CC)[C@@H](C)CC)C(C)C)C(C)C [compound 183] (Ac-IVLSLD[dV]PIKLK([γGlu-C12 diacid])KILLEQEKQKKQREQAETN[Api]QILAQV-NH2),2.47,11,> 250
